One series has as its system human T-lymphocyte (CEM). Briefly: Cytostatic activity against tumor cell lines (cell number by Coulter counter). The settings on record: 72 h, concentration inhibiting cell proliferation by 50%, three days incubation, mean of three repeats. The class given is cell-based. On the procedure: (§1) The IC50 was defined as the compound concentration required to inhibit cell proliferation by 50%. The therapeutic index (TI) was calculated as the ratio of the compound concentration producing toxicity (IC50) to the concentration needed to exert the desired ‘therapeutic’ effect on biofilms of Salmonella and Pseudomonas, indicated by the BIC50 (dose needed to prevent biofilm formation by 50%). The higher the therapeutic index, the broader the safety window of the compound.
(§2) Murine leukemia (L1210), human T-lymphocyte (CEM) and human cervix carcinoma (HeLa) were suspended at 300,000–500,000 cells/mL of culture medium, and 100 µL of a cell suspension was added to 100 µL of an appropriate dilution of the test compounds in 200 µL-wells of 96-well microtiter plates. After incubation at 37 °C for two (L1210), three (CEM) or four (HeLa) days, the cell number was determined using a Coulter counter. The IC50 was defined as the compound concentration required to inhibit cell proliferation by 50%.

Series [1] deals with human cervix carcinoma (HeLa). Described as above. The settings on record: 96 h, concentration inhibiting cell proliferation by 50%, four days incubation, mean of three repeats. The class given is cell-based. As to the method: as §1, §2
For a further series, the system named is murine leukemia (L1210). The series is described as above. The settings on record: Mus musculus, L1210, 48 h; concentration inhibiting cell proliferation by 50%; two days incubation; mean of three repeats. The format is cell-based. On the procedure: as §1, §2
In the next series the test system is C. elegans. The format is in vivo, Caenorhabditis elegans. To be noted: for C. elegans % survival at 25 µM: after 7 days relative to viability at day 0, mean of at least two repeats. As to the method: Eggs of a double mutant (glp-4Dsek-1D) of C. elegans were grown on NGM/OP50 agar plates (NGM agar plates on the surface inoculated with 100 µL of an overnight culture of OP50 Escherichia coli and stored at 4 °C until use) at 25 °C until all nematodes had reached the L4 stage. Worms were collected and washed with M9 buffer (3 g/L KH2PO4, 6 g/L Na2HPO4, 5 g/L NaCl, 1 mM MgSO4). For toxicity testing, 40 to 50 worms were suspended in 250 μL M9 (supplemented with 10 µg/mL cholesterol, 75 µg/mL ampicillin and 100 µg/mL kanamycin) buffer in each well of 24-well microtiter plates, in the presence or absence (0.5% DMSO control) of 25, 100 or 200 µM of the test compounds and grown for 7 days at 25 °C. The percentage survival of the worms in the presence or absence of anti-biofilm compounds was calculated after 7 days relative to their viability at day 0.

Series [2] has as its system human bone marrow-derived mesenchymal stem cells (MSC). Briefly: Cytotoxicity against bone cells, trypan blue staining. The format is cell-based. On the procedure: (§3) The cytotoxicity of the compounds was measured on cell cultures of two cell types represented in bone tissue, namely human osteoblasts (OB) and human bone marrow-derived mesenchymal stem cells (MSC). These tests were conducted according to ISO 10993-5 cytotoxicity standard. The cells were seeded in a 96-well plate at a density of 5000 cells/cm^2 in cell culture media (Advanced DMEM, 10% FBS, 1× GlutaMAX, 0.05 mg/mL gentamicin) and allowed to attach overnight. […]
(§4) Trypan blue staining: the medium was removed from the wells, and 1/3 trypan blue in DMEM medium was added to the cells, incubated for 3 min, after which trypan blue was removed and DMEM medium was added to the wells. In each of four wells, two microscopy fields were counted for viable (transparent) and dead (blue) cells.

Series [3] concerns human osteoblasts (OB). The description is as above. The class given is cell-based. As to the method:
as §3, §4

The test system of series [4] is human bone marrow-derived mesenchymal stem cells (MSC). The series is described as follows: Metabolic activity of bone cells, MTT staining. To be noted: 12.5 µM, 6 days exposure, MTT staining (results not shown). The class given is cell-based. As to the method:
(§5) The cytotoxicity of the compounds was measured on cell cultures of two cell types represented in bone tissue, namely human osteoblasts (OB) and human bone marrow-derived mesenchymal stem cells (MSC). These tests were conducted according to ISO 10993-5 cytotoxicity standard. The cells were seeded in a 96-well plate at a density of 5000 cells/cm^2 in cell culture media (Advanced DMEM, 10% FBS, 1× GlutaMAX, 0.05 mg/mL gentamicin) and allowed to attach overnight. The next day the test compounds (12.5 μM) and controls were added to the cells (negative controls were cell culture medium and cell culture medium with 0.5% DMSO background, positive control was 0.05% phenol to show a cytotoxic effect) and incubated for 2h, 48h and 6 days and at each time-point the numbers of viable and dead cells were determined by trypan blue staining, and the metabolic activity was determined with MTT staining.
(§6) MTT: the medium was removed from the wells and 100 μL of medium, supplemented with 10% serum and 0.5 mg/mL MTT was added to the cells. The cells were incubated overnight at 37 °C and 5% CO2. The next day the medium with MTT was removed and 100 μL acidic isopropanol was added. The cells were then centrifuged at 2300 g and 50 μL of the supernatant was transferred to a new 96-well plate. The absorbance was measured at 570 nm and the background was measured at 660 nm. Four wells per condition were examined.

Series [5] concerns human osteoblasts (OB). Briefly: Metabolic activity of bone cells, MTT staining. The class given is cell-based. The settings on record: 12.5 µM, 6 days exposure, MTT staining (results not shown). On the procedure: as §5, §6
Series [6] relates to mesenchymal stem cells (MSC). The series is described as follows: Calcium assay for osteogenic differentiation potential. The class given is cell-based, human. To be noted: 12.5 µM, 5 weeks (Figure 6) or 3 weeks (methods) of exposure. On the procedure: (§7) MSC and OB were cultured in osteogenic medium for 3 and 5 weeks, respectively. The experimental groups included a positive solvent control (osteogenic medium with 0.5% DMSO background), a negative control (medium without osteogenic supplements) and treated samples (osteogenic medium, 0.5% DMSO background and 12.5 µM of test compound). Cell cultures were extracted by 5% trichloroacetic acid (500 μL per sample). O-Cresolphtalein complex was added (Calcium CPC LiquiColor Test®; Stanbio Laboratory, Boerne, TX, USA), and the calcium content was determined spectrophotometrically at 550 nm.
(§8) To determine the DNA content, cells were washed with PBS, and 200 μL of digestion buffer (10 mM Tris, 1 mM EDTA, 0.1% Triton X-100, 0.1 mg/mL proteinase K) was added. Samples were incubated in digestion buffer overnight at 56 °C. The supernatants were drawn off and PicoGreen® dye (Molecular Probes, Eugene, OR, USA) was added to the samples in 1:1 ratio and read in a fluorescent plate reader (excitation 485 nm and emission 528 nm). DNA values were used to normalize the calcium content. Four wells per condition were examined, and two samples from each well were taken for each assay.

In the next series the test system is osteoblasts (OB). The series is described as above. The class given is cell-based, human. To be noted: 12.5 µM, 3 weeks (Figure 6) or 5 weeks (methods) of exposure. As to the method:
as §7, §8

In a further series the test system is S. Typhimurium biofilm. To be noted: concentration preventing biofilm formation (at 25 °C) by 50%; as previously reported ref 13, 14, 15, 16; read-out: BIC50 S. Typhimurium; cited from earlier work.
For another series, the system named is P. aeruginosa biofilm. The settings on record: concentration preventing biofilm formation (at 25 °C) by 50%; as previously reported ref 13, 14, 15, 16; read-out: BIC50 P. aeruginosa; cited from earlier work.
Series [7] concerns HMO2, HepG2, HeLa and mouse lymphoma cells. Set-up: method as in PMID 12193030, PMID 15165143, PMID 17822294. To be noted: including HMO2, HepG2, HeLa and mouse lymphoma cells; cited from earlier work.
The mark [8] stands for this setting: 12.5 µM, after 48h and after 6 days of exposure, trypan blue.
Where [9] appears, read: 12.5 µM, 48h exposure, trypan blue.

The values that follow come from PMC6271933, “Evaluation of the Toxicity of 5-Aryl-2-Aminoimidazole-Based Biofilm Inhibitors against Eukaryotic Cell Lines, Bone Cells and the Nematode Caenorhabditis elegans” (Molecules, 2014).

Structures are written as SMILES. pIC50: −log10 of the molar value. Several values for one entry are separate records, joined by “and”; a condition that tells them apart may be missing. Equal values may be shown once. Entries after “also recorded” stand apart in the source; their conditions may differ.

As for `CCCCNc1ncc(-c2ccc(Br)cc2)[nH]1` [compound 25], the pIC50 in the series on human T-lymphocyte (CEM) was 3.31; in series [1], 4.29; with murine leukemia (L1210) it was 3.90; with S. Typhimurium biofilm it was 5.15; with P. aeruginosa biofilm it was 5.01. The “C. elegans % survival at 25 µM” value in the series on C. elegans stood at 102.4%. Also, the “effect on C. elegans survival at 100 µM” value with C. elegans (7 days of exposure) is listed as “none of the compounds significantly affect”. Besides, the “effect on C. elegans survival at 200 µM” value in the series on C. elegans (200 µM, 7 days of exposure) is given as “do not significantly affect survival”. For the same compound, the “effect on proliferation and viability” value (in series [2] (setting [8]); in the series with human osteoblasts (OB) [3] (setting [8])) was “do not or only slightly reduce” throughout. In addition, the “survival of cells after 4 weeks of exposure” value (in [2] (4 weeks of exposure); in the series on human osteoblasts (OB) [3] (4 weeks of exposure)) was “allow survival” throughout. Moreover, the “effect on metabolic activity” value (in series [4]; with human osteoblasts (OB) [5]) was “slightly enhance” throughout. The “calcium deposition compared to the solvent control (osteogenic differentiation potential)” value in series [6] is given as “none of the compounds does negatively affect; also recorded: significantly induces”; with osteoblasts (OB), “none of the compounds does negatively affect”.
In the case of `C/N=C1N=C(/N=c2\[nH]c(Cc3ccc(OC)cc3)c(Cc3cc(OC)c(O)c(OC)c3)n2C)C(=O)N\1C` [2l, naamidine I], in series [7], the “cytotoxicity to a variety of cell lines” value is “cytotoxic”.
For `COc1ccc(Cc2nc(N)n(C)c2Cc2cc(O)c(OC)c(O)c2)cc1` [2f, naamine E], the “cytotoxicity to a variety of cell lines” value in [7] was “cytotoxic”.
Take `COc1ccc(Cc2nc(N)n(C)c2Cc2ccc(O)c(OC)c2)cc1` [2g, naamine F]: the “cytotoxicity to a variety of cell lines” value in series [7] was “cytotoxic”.
Turning to `CCCCCCCCn1c(-c2ccc(Cl)cc2)cnc1N` [compound 7], the pIC50 in the series on human T-lymphocyte (CEM) is 3.45; in [1] it was 5.35; in the series on murine leukemia (L1210), 5.41; in the series on S. Typhimurium biofilm, 5.23; in the series with P. aeruginosa biofilm, 5.40. The “C. elegans % survival at 25 µM” value in the series with C. elegans came out at 86.6%. Further, the “effect on C. elegans survival at 100 µM” value in the series on C. elegans (7 days of exposure) is on record as “none of the compounds significantly affect”. The “inhibition of C. elegans survival at 200 µM” value in the series on C. elegans (200 µM, 7 days of exposure) was “more than 50%”. The “reduction of proliferation as compared to the solvent control” value (in series [2] (setting [9]); with human osteoblasts (OB) [3] (setting [9])) was > 70% in each case. Moreover, the “reduction of viability as compared to the solvent control” value (in [2] (setting [9]); in the series on human osteoblasts (OB) [3] (setting [9])) was > 70% each time. The “reduction of metabolic activity as compared to the untreated controls” value (in series [4]; in the series with human osteoblasts (OB) [5]) was > 80% each time.
With `COc1ccc(Cc2[nH]c(=N)n(C)c2Cc2cc(OC)c(O)c(OC)c2)cc1` [2h, naamine G], in series [7], the “cytotoxicity to a variety of cell lines” value is “cytotoxic”.
Regarding `Nc1ncc(-c2ccccc2)[nH]1` [compound 1], the pIC50 is 4.03 in the series with human T-lymphocyte (CEM); 3.84 in series [1]; 4.20 in the series on murine leukemia (L1210); 3.89 in the series with S. Typhimurium biofilm; 4.14 in the series on P. aeruginosa biofilm. Besides, the “C. elegans % survival at 25 µM” value in the series with C. elegans was 89.8%. Also, the “effect on C. elegans survival at 100 µM” value in the series on C. elegans (7 days of exposure) is listed as “none of the compounds significantly affect”. The “effect on C. elegans survival at 200 µM” value with C. elegans (200 µM, 7 days of exposure) is reported as “do not significantly affect survival”.
For the compound `COc1ccc(Cc2[nH]/c(=N\C3=NC(=O)N(C)C3=O)n(C)c2Cc2cc(OC)c(O)c(OC)c2)cc1` [2k, naamidine H], in series [7], the “cytotoxicity to a variety of cell lines” value was “cytotoxic”.
As to `c1ccc(-c2cn(CCCNc3ncc(-c4ccccc4)[nH]3)nn2)cc1` [compound 36], the pIC50 with human T-lymphocyte (CEM) is 3.34; in [1], 4.14; with murine leukemia (L1210), 3.66; with S. Typhimurium biofilm, 4.44; with P. aeruginosa biofilm, < 3.40. Further, the “C. elegans % survival at 25 µM” value in the series with C. elegans was 87.7%.
Turning to `Nc1ncc(-c2ccc(Br)cc2)[nH]1` [compound 5, 5-(p-bromophenyl)-2-aminoimidazole], the pIC50 in the series on human T-lymphocyte (CEM) was 4.86; in series [1], 4.66; in the series with murine leukemia (L1210), 5.00; in the series with S. Typhimurium biofilm it was 4.32; in the series with P. aeruginosa biofilm it was 5.49. The “C. elegans % survival at 25 µM” value with C. elegans worked out at 90.6%.
With `Brc1ccc(-c2cnc(NCCCn3cc(C4CCCCC4)nn3)[nH]2)cc1` [compound 39], the pIC50 with human T-lymphocyte (CEM) is 3.40; in series [1], 4.65; with murine leukemia (L1210), 4.68; in the series on S. Typhimurium biofilm it was 5.08; in the series on P. aeruginosa biofilm it was ~4.90 and 4.90. In addition, the “C. elegans % survival at 25 µM” value in the series with C. elegans was determined as 99.3%.
On to `COc1ccc(Cc2nc(N)n(C)c2Cc2cc(O)c(OC)c(OC)c2)cc1` [2e, naamine C], for which the “cytotoxicity to a variety of cell lines” value in series [7] is recorded as “cytotoxic”.
For the compound `COc1ccc(Cn2cc(Cc3ccc(OC)c(OC)c3)nc2/N=C2/NC(=O)N(C)C2=O)cc1` [2i, isonaamidine E], the “cytotoxicity to a variety of cell lines” value in [7] is “cytotoxic”.
Turning to `Nc1ncc(-c2ccc(Cl)cc2)[nH]1` [compound 2], the pIC50 was 4.30 with human T-lymphocyte (CEM); 4.14 in series [1]; 4.11 in the series on murine leukemia (L1210); 4.80 in the series on S. Typhimurium biofilm; 5.46 in the series on P. aeruginosa biofilm. Moreover, the “C. elegans % survival at 25 µM” value in the series with C. elegans was 84.9%.
